Results as given in the supplement of paper PMC7840683.
± gives the standard deviation of the averaged measurements.

Tested on: HepaRG
Assay: LDH release cytotoxicity, % of total lysis control; higher = more cytotoxic
Settings: 48 h
Summary of the method: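 Eight-point half-log series of test chemicals, the highest at 100 µM, were given in duplicate for 48 h to single-lot HepaRG cells on collagen I-coated 96-well plates in serum-free induction medium with 0.5% DMSO. A Tecan Safire read resorufin fluorescence from CytoTox-ONE as a measure of LDH in 50 µL spent medium, with 0.1% Triton X in total lysis wells. Percent cytotoxicity was normalized to on-plate vehicle and total lysis controls and averaged over the duplicates.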

## C=CCc1cc(S(=O)(=O)c2ccc(O)c(CC=C)c2)ccc1O [4,4'-Sulfonylbis[2-(prop-2-en-1-yl)phenol]]
0.03162 µM
  LDH release cytotoxicity: -0.87 ± 0.11%
0.1 µM
  LDH release cytotoxicity: -2.88 ± 0.65%
0.3162278 µM
  LDH release cytotoxicity: -1.86 ± 0.44%
1 µM
  LDH release cytotoxicity: -2.39 ± 0.7%
3.16228 µM
  LDH release cytotoxicity: -2.01 ± 0.34%
10 µM
  LDH release cytotoxicity: -1.55 ± 0.91%
31.6228 µM
  LDH release cytotoxicity: -1.16 ± 0.93%
100 µM
  LDH release cytotoxicity: 0.193 ± 0.0097%

## CC(C)(C)CC(C)(C)c1ccc(O)cc1 [4-(1,1,3,3-Tetramethylbutyl)phenol]
0.03162 µM
  LDH release cytotoxicity: -1.49 ± 0.56%
0.1 µM
  LDH release cytotoxicity: -1.58 ± 0.72%
0.3162278 µM
  LDH release cytotoxicity: -1.966 ± 0.018%
1 µM
  LDH release cytotoxicity: -1.68 ± 0.34%
3.16228 µM
  LDH release cytotoxicity: -1.21 ± 0.76%
10 µM
  LDH release cytotoxicity: -1.69 ± 0.45%
31.6228 µM
  LDH release cytotoxicity: -0.473 ± 0.21%
100 µM
  LDH release cytotoxicity: 42.9 ± 6.3%

## CCC(C)(C)C1CCC(O)CC1 (stereo not given) [4-(2-Methylbutan-2-yl)cyclohexanol]
0.03162 µM
  LDH release cytotoxicity: -0.419 ± 1.4%
0.1 µM
  LDH release cytotoxicity: -1.92 ± 0.13%
0.3162278 µM
  LDH release cytotoxicity: -1.25 ± 0.17%
1 µM
  LDH release cytotoxicity: -1.82 ± 0.12%
3.16228 µM
  LDH release cytotoxicity: -2.17 ± 0.41%
10 µM
  LDH release cytotoxicity: -1.05 ± 0.12%
31.6228 µM
  LDH release cytotoxicity: -1.3 ± 0.32%
100 µM
  LDH release cytotoxicity: 0.0243 ± 0.8%

## CCC(C)(C)c1ccc(O)cc1 [4-(2-Methylbutan-2-yl)phenol]
0.03162 µM
  LDH release cytotoxicity: -0.822 ± 0.23%
0.1 µM
  LDH release cytotoxicity: -1.57 ± 0.82%
0.3162278 µM
  LDH release cytotoxicity: -1.05 ± 0.14%
1 µM
  LDH release cytotoxicity: -1.22 ± 0.6%
3.16228 µM
  LDH release cytotoxicity: -1.65 ± 0.4%
10 µM
  LDH release cytotoxicity: -0.249 ± 0.14%
31.6228 µM
  LDH release cytotoxicity: -1.75 ± 1.1%
100 µM
  LDH release cytotoxicity: 0.707 ± 0.61%

## CCC(C)c1ccc(O)cc1 (stereo not given) [4-(Butan-2-yl)phenol]
0.03162 µM
  LDH release cytotoxicity: -1.68 ± 0.31%
0.1 µM
  LDH release cytotoxicity: -2.9 ± 0.076%
0.3162278 µM
  LDH release cytotoxicity: -2.9 ± 0.23%
1 µM
  LDH release cytotoxicity: -3.15 ± 0.78%
3.16228 µM
  LDH release cytotoxicity: -2.86 ± 0.48%
10 µM
  LDH release cytotoxicity: -2.62 ± 0.47%
31.6228 µM
  LDH release cytotoxicity: -1.77 ± 0.96%
100 µM
  LDH release cytotoxicity: -0.982 ± 0.8%

## Nn1cnnc1 [4-Amino-1,2,4-triazole]
0.0320971 µM
  LDH release cytotoxicity: -2.94 ± 0.43%
0.1015 µM
  LDH release cytotoxicity: -2.79 ± 0.045%
0.320971 µM
  LDH release cytotoxicity: -3.1 ± 0.21%
1.015 µM
  LDH release cytotoxicity: -3.38 ± 1.2%
3.2097118 µM
  LDH release cytotoxicity: -2.7 ± 0.23%
10.15 µM
  LDH release cytotoxicity: -3.19 ± 0.35%
32.0971 µM
  LDH release cytotoxicity: -3.08 ± 0.13%
101.5 µM
  LDH release cytotoxicity: 0.447 ± 1.1%

## Nc1ccc(N=Nc2ccccc2)cc1 [4-Aminoazobenzene]
0.03162 µM
  LDH release cytotoxicity: -0.0491 ± 1.1%
0.1 µM
  LDH release cytotoxicity: -1.19 ± 0.14%
0.3162278 µM
  LDH release cytotoxicity: -1.19 ± 0.25%
1 µM
  LDH release cytotoxicity: -1.05 ± 0.38%
3.16228 µM
  LDH release cytotoxicity: -1.2 ± 0.12%
10 µM
  LDH release cytotoxicity: -0.585 ± 0.52%
31.6228 µM
  LDH release cytotoxicity: 0.184 ± 1.3%
100 µM
  LDH release cytotoxicity: 0.63 ± 1.1%

## Nc1ccc(C(=O)O)cc1 [4-Aminobenzoic acid]
0.031623 µM
  LDH release cytotoxicity: -2.09 ± 0.27%
0.1 µM
  LDH release cytotoxicity: -1.2 ± 2.3%
0.316228 µM
  LDH release cytotoxicity: -0.757 ± 1.4%
1 µM
  LDH release cytotoxicity: -2.3 ± 1.1%
3.16228 µM
  LDH release cytotoxicity: -2.47 ± 0.28%
10 µM
  LDH release cytotoxicity: -1.41 ± 0.43%
31.6228 µM
  LDH release cytotoxicity: -0.777 ± 0.61%
100 µM
  LDH release cytotoxicity: 1.93 ± 0.47%

## CC12CCC3C(CCC4=CC(=O)CCC43C)C1CCC2=O (stereo not given) [4-Androstene-3,17-dione]
0.03162 µM
  LDH release cytotoxicity: -0.88 ± 1.8%
0.1 µM
  LDH release cytotoxicity: -1.74 ± 1.8%
0.3162278 µM
  LDH release cytotoxicity: -3.47 ± 0.78%
1 µM
  LDH release cytotoxicity: -2.45 ± 0.041%
3.16228 µM
  LDH release cytotoxicity: -1.84 ± 0.94%
10 µM
  LDH release cytotoxicity: -1.3 ± 1.1%
31.6228 µM
  LDH release cytotoxicity: -0.324 ± 1.7%
100 µM
  LDH release cytotoxicity: 37.8 ± 21%

## O=C1CCCO1 [4-Butyrolactone]
0.03162 µM
  LDH release cytotoxicity: -0.251 ± 0.26%
0.1 µM
  LDH release cytotoxicity: -0.513 ± 0.22%
0.3162278 µM
  LDH release cytotoxicity: -0.359 ± 0.74%
1 µM
  LDH release cytotoxicity: -0.517 ± 0.14%
3.16228 µM
  LDH release cytotoxicity: -0.65 ± 0.32%
10 µM
  LDH release cytotoxicity: 0.21 ± 0.013%
31.6228 µM
  LDH release cytotoxicity: -0.668 ± 0.54%
100 µM
  LDH release cytotoxicity: 1.06 ± 1.1%

## Nc1ccc(Cl)cc1N [4-Chloro-1,2-diaminobenzene]
0.03162 µM
  LDH release cytotoxicity: -0.924 ± 0.44%
0.1 µM
  LDH release cytotoxicity: -0.99 ± 0.3%
0.3162278 µM
  LDH release cytotoxicity: -1.38 ± 0.26%
1 µM
  LDH release cytotoxicity: -1.19 ± 0.55%
3.16228 µM
  LDH release cytotoxicity: -0.451 ± 0.11%
10 µM
  LDH release cytotoxicity: -0.557 ± 0.35%
31.6228 µM
  LDH release cytotoxicity: -0.208 ± 0.24%
100 µM
  LDH release cytotoxicity: -0.194 ± 0.22%

## Cc1cc(O)ccc1Cl [4-Chloro-3-methylphenol]
0.03162 µM
  LDH release cytotoxicity: -0.825 ± 1.3%
0.1 µM
  LDH release cytotoxicity: -0.387 ± 0.92%
0.3162278 µM
  LDH release cytotoxicity: -0.309 ± 1.2%
1 µM
  LDH release cytotoxicity: -0.443 ± 0.47%
3.16228 µM
  LDH release cytotoxicity: 0.57 ± 0.19%
10 µM
  LDH release cytotoxicity: 0.611 ± 0.11%
31.6228 µM
  LDH release cytotoxicity: 0.786 ± 0.33%
100 µM
  LDH release cytotoxicity: 2.48 ± 0.35%

## Nc1ccc(Cl)cc1 [4-Chloroaniline]
0.03162 µM
  LDH release cytotoxicity: -1.56 ± 1.1%
0.1 µM
  LDH release cytotoxicity: -0.947 ± 0.94%
0.3162278 µM
  LDH release cytotoxicity: -2.25 ± 0.86%
1 µM
  LDH release cytotoxicity: -1.34 ± 1.4%
3.16228 µM
  LDH release cytotoxicity: -0.444 ± 0.82%
10 µM
  LDH release cytotoxicity: -1.71 ± 0.56%
31.6228 µM
  LDH release cytotoxicity: -1.53 ± 0.87%
100 µM
  LDH release cytotoxicity: 0.243 ± 0.87%

## Clc1ccc(C(Cl)(Cl)Cl)cc1 [4-Chlorobenzotrichloride]
0.03162 µM
  LDH release cytotoxicity: -1.85 ± 0.71%
0.1 µM
  LDH release cytotoxicity: -1.72 ± 0.36%
0.3162278 µM
  LDH release cytotoxicity: -2.4 ± 0.4%
1 µM
  LDH release cytotoxicity: -1.68 ± 1.3%
3.16228 µM
  LDH release cytotoxicity: -1.91 ± 0.86%
10 µM
  LDH release cytotoxicity: -1.134 ± 0.011%
31.6228 µM
  LDH release cytotoxicity: -0.341 ± 0.31%
100 µM
  LDH release cytotoxicity: 27.7 ± 9.1%

## Cc1ccc(Cl)cc1 [4-Chlorotoluene]
0.031623 µM
  LDH release cytotoxicity: -0.192 ± 0.14%
0.1 µM
  LDH release cytotoxicity: -1.27 ± 2.3%
0.316228 µM
  LDH release cytotoxicity: -1.26 ± 0.55%
1 µM
  LDH release cytotoxicity: -2.78 ± 0.39%
3.16228 µM
  LDH release cytotoxicity: -2.43 ± 0.42%
10 µM
  LDH release cytotoxicity: -1.55 ± 1.5%
31.6228 µM
  LDH release cytotoxicity: -1.15 ± 0.57%
100 µM
  LDH release cytotoxicity: 1.18 ± 0.3%

## CC(C)(c1ccccc1)c1ccc(O)cc1 [4-Cumylphenol]
0.03162 µM
  LDH release cytotoxicity: -1.06 ± 1.8%
0.1 µM
  LDH release cytotoxicity: 0.26 ± 0.48%
0.3162278 µM
  LDH release cytotoxicity: -1.3 ± 0.86%
1 µM
  LDH release cytotoxicity: -2.27 ± 0.56%
3.16228 µM
  LDH release cytotoxicity: -0.891 ± 1.4%
10 µM
  LDH release cytotoxicity: -0.313 ± 0.88%
31.6228 µM
  LDH release cytotoxicity: 2.91 ± 0.44%
100 µM
  LDH release cytotoxicity: 111 ± 5.5%

## OC1CCC(C2CCCCC2)CC1 (stereo not given) [4-Cyclohexylcyclohexanol]
0.03162 µM
  LDH release cytotoxicity: -1.67 ± 0.32%
0.1 µM
  LDH release cytotoxicity: -1.27 ± 1.5%
0.3162278 µM
  LDH release cytotoxicity: -1.62 ± 1.1%
1 µM
  LDH release cytotoxicity: -2.39 ± 0.036%
3.16228 µM
  LDH release cytotoxicity: -2.08 ± 1.7%
10 µM
  LDH release cytotoxicity: -1.58 ± 0.49%
31.6228 µM
  LDH release cytotoxicity: -1.22 ± 0.35%
100 µM
  LDH release cytotoxicity: 0.00977 ± 0.63%

## O=C1CCC(C2CCCCC2)CC1 [4-Cyclohexylcyclohexanone]
0.03162 µM
  LDH release cytotoxicity: -0.737 ± 0.094%
0.1 µM
  LDH release cytotoxicity: -0.435 ± 0.51%
0.3162278 µM
  LDH release cytotoxicity: -0.827 ± 0.45%
1 µM
  LDH release cytotoxicity: -0.822 ± 0.7%
3.16228 µM
  LDH release cytotoxicity: -0.588 ± 1.1%
10 µM
  LDH release cytotoxicity: 0.479 ± 0.26%
31.6228 µM
  LDH release cytotoxicity: 0.205 ± 0.41%
100 µM
  LDH release cytotoxicity: 0.739 ± 1.3%

## C#CC(O)C(CC)CCCC (stereo not given) [4-Ethyloct-1-yn-3-ol]
0.03162 µM
  LDH release cytotoxicity: -1.1 ± 1.3%
0.1 µM
  LDH release cytotoxicity: -0.852 ± 0.24%
0.3162278 µM
  LDH release cytotoxicity: -1.73 ± 0.62%
1 µM
  LDH release cytotoxicity: -1.75 ± 0.33%
3.16228 µM
  LDH release cytotoxicity: -0.91 ± 0.66%
10 µM
  LDH release cytotoxicity: -1.32 ± 0.19%
31.6228 µM
  LDH release cytotoxicity: -1.07 ± 0.15%
100 µM
  LDH release cytotoxicity: 0.266 ± 0.29%

## CCCCCCCc1ccc(O)cc1 [4-Heptylphenol]
0.03162 µM
  LDH release cytotoxicity: -0.653 ± 0.82%
0.1 µM
  LDH release cytotoxicity: -1.61 ± 0.21%
0.3162278 µM
  LDH release cytotoxicity: -0.99 ± 0.5%
1 µM
  LDH release cytotoxicity: -1.03 ± 0.079%
3.16228 µM
  LDH release cytotoxicity: -1.8 ± 0.76%
10 µM
  LDH release cytotoxicity: -0.598 ± 0.18%
31.6228 µM
  LDH release cytotoxicity: -0.324 ± 0.52%
100 µM
  LDH release cytotoxicity: 0.525%
